{"source": "paper PMC2621068", "about": "(Neuropeptides, 2008)", "key": {"[1]": {"system": "NMDAR", "details": "cited from earlier work"}, "[2]": {"system": "female Kuming mice", "details": "mouse, in vivo"}, "[3]": {"system": "Kuming mice", "assay_type": "in vivo, mouse", "details": "for first phase response of the formalin test (in words) / second phase response of the formalin test (in words): n = 8; for paw biting/licking behaviors after subcutaneous peptide (in words): mouse, in vivo, sc"}, "[4]": {"system": "Kuming mice", "assay_type": "in vivo, mouse", "details": "for effect on writhing responses (in words): n = 8; for number of abdominal contortions: mouse, in vivo"}, "[5]": {"system": "NMDAR", "details": "cited from earlier work", "remark": "listed apart in the source"}, "[6]": {"system": "female mice", "assay_type": "in vivo, mouse", "details": "for paw withdrawal latency as % of pre-administration values: mouse, in vivo"}, "[7]": {"system": "Kuming mice", "details": "mouse, in vivo; for edematogenic response after subcutaneous peptide (in words): sc"}, "[8]": {"system": "mice", "details": "mouse, in vivo"}, "[9]": {"system": "Kuming mice", "details": "mouse, in vivo"}, "[10]": {"system": "mice", "details": "mouse, in vivo; cited from earlier work"}, "[11]": {"details": "in vivo; cited from earlier work"}}, "note": "Where “and” joins values, the source holds several entries; their conditions need not be identical. Equal values may be shown once.", "data": [{"substance": "GEγγLGKAQALIRAAYA-NH2 [Ala-con-G]", "values": [{"measurement": "IC50", "setting": "[1]", "value": 180, "unit": "nM"}, {"measurement": "Paw withdrawal latency after peptide administration, 30 min", "setting": "[2]", "value": "20.3 ± 8.6 s and 11.9 ± 3.4 s"}, {"measurement": "Paw withdrawal latency after peptide administration, 90 min", "setting": "[2]", "value": "20.9 ± 5.7 s and 22.4 ± 9.5 s"}, {"measurement": "Paw withdrawal latency after peptide administration, 150 min", "setting": "[2]", "value": "24.6 ± 10.4 s and 17.1 ± 7.5 s"}, {"measurement": "Paw withdrawal latency after peptide administration, 240 min", "setting": "[2]", "value": "16.1 ± 5.0 s and 20.0 ± 16.1 s"}, {"measurement": "Paw withdrawal latency before peptide administration", "setting": "[2]", "value": "15.3 ± 3.0 s and 11.3 ± 1.9 s"}, {"measurement": "antinociception in the hot-plate test (in words)", "setting": "[2]", "value": "ineffective at antinociception at all time points examined"}, {"measurement": "first phase response of the formalin test (in words)", "setting": "[3]", "value": "significantly reduced the time spent responding to the afflicted paw"}, {"measurement": "second phase response of the formalin test (in words)", "setting": "[3]", "value": "neither Ala-con-G nor con-R[1-17] provided antinociception"}, {"measurement": "effect on writhing responses (in words)", "setting": "[4]", "value": "failed to attenuate writhing responses"}, {"measurement": "components of binding to adult rat brain sections (in words)", "setting": "[5]", "value": "only the high-affinity NMDAR-specific component of binding"}, {"measurement": "effect on withdrawal latencies in the CFA model (in words)", "setting": "[6]; n = 8", "value": "failed to alter withdrawal latencies"}, {"measurement": "Increase in paw width", "setting": "[7]", "value": "0.97 ± 0.05", "unit": "mm"}, {"measurement": "Injected paw width, after formalin injection", "setting": "[7]", "value": "2.56 ± 0.05", "unit": "mm"}, {"measurement": "Injected paw width, before formalin injection", "setting": "[7]", "value": "1.60 ± 0.02", "unit": "mm"}]}, {"substance": "GEγγLQKNQγLIRγKSN-NH2 [con-G[γ7K]]", "values": [{"measurement": "IC50", "setting": "[1]", "value": 220, "unit": "nM"}, {"measurement": "Paw withdrawal latency after peptide administration, 30 min", "setting": "[2]", "value": "11.9 ± 4.3 s and 21.5 ± 12.5 s"}, {"measurement": "Paw withdrawal latency before peptide administration", "setting": "[2]", "value": "14.9 ± 3.5 s and 15.1 ± 3.9 s"}, {"measurement": "first phase response of the formalin test (in words)", "setting": "[3]", "value": "significantly reduced the time spent responding to the afflicted paw"}, {"measurement": "effect on writhing responses (in words)", "setting": "[4]", "value": "failed to attenuate writhing responses"}]}, {"substance": "GEγγLQγNQγLIRAKSN-NH2 [con-G[γ14A]]", "values": [{"measurement": "IC50", "setting": "[1]", "value": 230, "unit": "nM"}, {"measurement": "Paw withdrawal latency after peptide administration, 30 min", "setting": "[2]", "value": "10.0 ± 3.3", "unit": "s"}, {"measurement": "Paw withdrawal latency after peptide administration, 90 min", "setting": "[2]", "value": "20.4 ± 14.2", "unit": "s"}, {"measurement": "Paw withdrawal latency after peptide administration, 150 min", "setting": "[2]", "value": "^ˆ25.4 ± 9.3 s"}, {"measurement": "Paw withdrawal latency after peptide administration, 240 min", "setting": "[2]", "value": "^ˆ22.8 ± 8.6 s"}, {"measurement": "Paw withdrawal latency before peptide administration", "setting": "[2]", "value": "11.3 ± 1.5", "unit": "s"}, {"measurement": "antinociception in the hot-plate test (in words)", "setting": "[2]", "value": "ineffective at antinociception at all time points examined"}]}, {"substance": "GEγγLQγNQγLIRAKYN-NH2 [con-G[S16Y]]", "values": [{"measurement": "IC50", "setting": "[1]", "value": 140, "unit": "nM"}, {"measurement": "increase in potency in the [3H]MK-801 binding assay compared to con-G", "setting": "[1]", "value": 3.5, "unit": "fold"}, {"measurement": "Paw withdrawal latency before peptide administration", "setting": "[2]", "value": "13.4 ± 3.1 s and 9.0 ± 2.1 s"}, {"measurement": "antinociception in the hot-plate test (in words)", "setting": "[2]", "value": "highest antinociceptive activity"}, {"measurement": "motor impairment in the rotarod test, comparison of the two peptides (in words)", "setting": "[8]", "value": "reverse effect"}, {"measurement": "motor toxicity in the rotarod test relative to saline (in words)", "setting": "[8]", "value": "some toxicity"}, {"measurement": "rotarod stay time, 60 min versus 240 min test times (in words)", "setting": "[8]", "value": "no significant differences"}, {"measurement": "paw biting/licking behaviors after subcutaneous peptide (in words)", "setting": "[3]", "value": "did not significantly diminish paw biting/licking behaviors"}, {"measurement": "first phase response of the formalin test (in words)", "setting": "[3]", "value": "significantly reduced the time spent responding to the afflicted paw"}, {"measurement": "second phase response of the formalin test (in words)", "setting": "[3]", "value": "highly effective in reducing the responses to the afflicted paw"}, {"measurement": "number of abdominal contortions", "setting": "[4]", "value": "6.4 ± 4.6"}, {"measurement": "effect on writhing responses (in words)", "setting": "[4]", "value": "significantly effective in modulating responses to the acid stimulus"}, {"measurement": "share of peptide associated with a low-affinity, non-receptor site", "setting": "[5]", "value": "approximately 80%"}, {"measurement": "day 3 paw diameter after peptide injection", "setting": "[9]", "value": "2.26 ± 0.058", "unit": "mm"}, {"measurement": "day 3 paw diameter before peptide injection", "setting": "[9]", "value": "2.36 ± 0.039", "unit": "mm"}, {"measurement": "paw withdrawal latency as % of pre-administration values", "setting": "[6]", "value": 80, "unit": "%"}, {"measurement": "increase of paw withdrawal latency compared to the day 3 controls", "setting": "[6]; n = 8", "value": "~2", "unit": "s"}, {"measurement": "Increase in paw width", "setting": "[7]", "value": "0.76 ± 0.05", "unit": "mm"}, {"measurement": "Injected paw width, after formalin injection", "setting": "[7]", "value": "2.33 ± 0.05", "unit": "mm"}, {"measurement": "Injected paw width, before formalin injection", "setting": "[7]", "value": "1.57 ± 0.03", "unit": "mm"}, {"measurement": "edematogenic response after subcutaneous peptide (in words)", "setting": "[7]", "value": "nor did they reduce the edematogenic response"}]}, {"substance": "con-G[N8A]: NR2B-selective con-G variant (GEEELQEAQELIREKSN; not fully specified; Conantokin-G; UniProt P07231 81-97, looked up, variant N8A)", "values": [{"measurement": "IC50", "setting": "[1]", "value": 490, "unit": "nM"}, {"measurement": "Paw withdrawal latency after peptide administration, 30 min", "setting": "[2]", "value": "11.6 ± 4.2", "unit": "s"}, {"measurement": "Paw withdrawal latency after peptide administration, 90 min", "setting": "[2]", "value": "13.5 ± 4.8", "unit": "s"}, {"measurement": "Paw withdrawal latency after peptide administration, 150 min", "setting": "[2]", "value": "12.6 ± 2.5", "unit": "s"}, {"measurement": "Paw withdrawal latency after peptide administration, 240 min", "setting": "[2]", "value": "13.8 ± 3.1", "unit": "s"}, {"measurement": "Paw withdrawal latency before peptide administration", "setting": "[2]", "value": "11.1 ± 2.5", "unit": "s"}, {"measurement": "antinociception in the hot-plate test (in words)", "setting": "[2]", "value": "ineffective at antinociception at all time points examined"}]}, {"substance": "conantokin-G [con-G]", "values": [{"measurement": "IC50", "setting": "[1]", "value": 480, "unit": "nM"}, {"measurement": "Paw withdrawal latency after peptide administration, 30 min", "setting": "[2]", "value": "12.2 ± 4.5 s and 12.6 ± 12.5 s"}, {"measurement": "Paw withdrawal latency before peptide administration", "setting": "[2]", "value": "11.6 ± 2.1 s and 11.6 ± 2.5 s"}, {"measurement": "percent inhibition of responses, first phase of the formalin test", "setting": "[10]", "value": "25-35%"}, {"measurement": "median toxic dose, rotarod test", "setting": "[11]", "value": "ca. 300 pmol"}, {"measurement": "paw biting/licking behaviors after subcutaneous peptide (in words)", "setting": "[3]", "value": "did not significantly diminish paw biting/licking behaviors"}, {"measurement": "first phase response of the formalin test (in words)", "setting": "[3]", "value": "significantly reduced the time spent responding to the afflicted paw"}, {"measurement": "second phase response of the formalin test (in words)", "setting": "[3]", "value": "highly effective in reducing the responses to the afflicted paw"}, {"measurement": "number of abdominal contortions", "setting": "[4]", "value": "8.3 ± 6.0"}, {"measurement": "paw withdrawal latency as % of pre-administration values", "setting": "[6]", "value": 80, "unit": "%"}, {"measurement": "increase of paw withdrawal latency compared to the day 3 controls", "setting": "[6]; n = 8", "value": "approximately 1 s"}, {"measurement": "Increase in paw width", "setting": "[7]", "value": "0.83 ± 0.03", "unit": "mm"}, {"measurement": "Injected paw width, after formalin injection", "setting": "[7]", "value": "2.38 ± 0.03", "unit": "mm"}, {"measurement": "Injected paw width, before formalin injection", "setting": "[7]", "value": "1.55 ± 0.02", "unit": "mm"}, {"measurement": "edematogenic response after subcutaneous peptide (in words)", "setting": "[7]", "value": "nor did they reduce the edematogenic response"}]}, {"substance": "conantokin-T [con-T]", "values": [{"measurement": "IC50", "setting": "[1]", "value": 400, "unit": "nM"}, {"measurement": "Paw withdrawal latency after peptide administration, 30 min", "setting": "[2]", "value": "13.1 ± 3.1", "unit": "s"}, {"measurement": "Paw withdrawal latency after peptide administration, 90 min", "setting": "[2]", "value": "15.4 ± 4.8", "unit": "s"}, {"measurement": "Paw withdrawal latency after peptide administration, 150 min", "setting": "[2]", "value": "16.5 ± 4.6", "unit": "s"}, {"measurement": "Paw withdrawal latency after peptide administration, 240 min", "setting": "[2]", "value": "16.8 ± 4.5", "unit": "s"}, {"measurement": "Paw withdrawal latency before peptide administration", "setting": "[2]", "value": "11.9 ± 2.9", "unit": "s"}, {"measurement": "antinociception in the hot-plate test (in words)", "setting": "[2]", "value": "without effect"}, {"measurement": "percent inhibition of responses, first phase of the formalin test", "setting": "[10]", "value": "25-35%"}, {"measurement": "median toxic dose, rotarod test", "setting": "[11]", "value": "ca. 300 pmol"}]}]}
